Entries after “also recorded” stand apart in the source; their conditions may differ.

The test system of one data set is mature human miR-208a. Briefly: Duplex melting temperature (Tm) of anti-208a oligonucleotides annealed to complementary RNA. The data set is classed as binding. As to conditions: for Tm / ΔTm/mod / ΔTm, parent / ΔTm, DNA: RNA complement; for Tm: duplex 1 μM in 0.9% NaCl, in °C (unit assumed); for ΔTm, parent: versus parent 10101; for ΔTm, DNA: versus fully DNA oligo 10931. Here is the method:
The melting temperature (Tm) of modified 16 nucleotide phosphodiester strands were determined and compared to the Tm of identical 16 nucleotide sequences having natural phosphodiester DNA nucleotides. Specifically, the relative aminoCBBN melting temperature (Tm) compared to the 2′-deoxynucleoside or oxoCBBN nucleoside with the same nucleobase was determined on a per incorporation basis by determining the difference between the melting temperature of the amino-modified 16 nucleotide length phosphodiester strand and that of the identical 16 nucleotide sequence utilizing either the 2′-deoxynucleoside or oxoCBBN phosphodiester DNA nucleotide. Tm differences of substitutions were compared only when they were placed in the same position of the sequence.
For example, the modified anti-208a oligonucleotides were annealed to the complementary sequence, twenty-two nucleotides in length, comprised of RNA nucleosides and a phosphate backbone. The complementary sequence was identical to the endogenous mature miRNA. Thermal denaturation temperatures (Tm) were measured as a maximum of the first derivative plot of melting curvex (A260 vs. Temp). The duplexes were constituted at 1 μM in a 0.9% NaCl buffer. Temperature was ramped from 25° C. to 95° C. at 1° C./min and OD's at 260 nm were read once per 30 seconds. Tm values are averages of at least two measurements.
Duplex melting temperatures for various modifications of a 16 nucleotide sequence, complementary to a nucleotide sequence of mature human miR-208a were measured using a Varian Cary 1E UV-Vis Spectrophotometer. Anti-miRNA 208a oligonucleotide sequences tested included a fully DNA phosphodiester (compound M-10931), four DNA phosphodiester oligonucleotides with 1, 2 or 3 aminoCBBN thymidine residues in place of dT residues (compounds M-1915, M-1916, M-1917, and M-11918), mixed 9 LNA/7 DNA phosphorothioate oligonucleotide (compound M-10101), and 2 mixed LNA/DNA/aminoCBBN phosphorothioate oligonucleotides where LNA thymidines of the parent compound, compound M-10101, were replaced with either 1 or 2 aminoCBBN residues (compounds M-11919 and M-11920). Duplexes were constituted at 1 μM in 0.9% NaCl. Temperature was ramped from 25° C. to 95° C. at 1° C./min and OD's at 260 nm were read once per 30 seconds.

The next data set concerns miR-208a. As to the kind of experiment: Dual-luciferase reporter assay in HeLa cell line stably expressing miR-208a. The data set is classed as cell-based. As to conditions: HeLa cells expressing miR-208a, 24 hours at 37° C., FIG. 6. As to the method:
A HeLa cell line stably expressing miR-208a was generated. Specifically, a miRNA expression vector (Cell BioLabs, Inc.) expressing miR-208a was transfected into HeLa cells. Cells were then selected using a puromycin selection screen and clones which had detectable miR-208a expression as measured by qPCR were isolated (Ct value=˜30).
The cells were plated in a black-walled 96 well plate with 10,000 cells per well. After twenty-four hours following plating, the cells were transfected with a dual-luciferase plasmid containing the miR-208a binding site in the 3′ UTR of the renilla gene and various miR-208a inhibitors (compounds M-11919, M-11920, and M-10101). Compound M-10591 was a non-targeting control. The cells were incubated for 24 hours at 37° C. and then both firefly (as a transfection normalization) and renilla levels were measured by luminescence using the Dual-Luciferase Reporter Assay System (Promega). Data was normalized to cells treated with only the miR-208a dual luciferase plasmid (psi check 208a).
(In a reporter assay the amount or activity of a reporter protein is the signal.)

A further data set relates to RNA Complement. As to conditions: 9mer, phosphate backbone, cited from earlier work; for Tm: RNA complement, literature values.
[1] abbreviates: PS backbone, per modification versus parent 10101.

As for “lCs.dTs.dTs.dTs.lTs.lTs.dGs.lCs.dTs.lCs.lGs.dTs.lCs. dTs.abTs.lA [Oligo 11920]”, the Tm with mature human miR-208a (PS backbone, 10101-like) came to 85.125. Further, in the data set on mature human miR-208a (setting [1]), the ΔTm/mod is -0.7875 ° C./modification. Besides, the “ΔTm, parent” value in the data set with mature human miR-208a (PS backbone) was -1.575. In addition, the “miR208a inhibition activity (dual-luciferase reporter), in words” value in the data set with miR-208a (listed as M-11920) is recorded as “comparable activity as compound M-10101; also recorded: retains all activity of the optimized M-10101 compound”.

“bC.bT.bT.bT.bT.bT.dG.bC.bT.bC.dG.bT.bC.bT.bT. dA [Oligo 10924, reference compound]”: in the data set on mature human miR-208a (phosphate backbone), the Tm amounted to 89.8 and the ΔTm, DNA is 36.7 °C. Also, the ΔTm/mod in the data set on mature human miR-208a (phosphate backbone, per modification versus DNA) was 2.8 ° C./modification.

In the case of “dC;dT;dT;dT;dT;dT;dG;dC;dT;dC;dG;dT;dC;dT;dT;dA (antisense CTTTTTGCTCGTCTTA; DNA, backbone not given here) [Oligo 10931, reference compound]”, in the data set on mature human miR-208a (phosphate backbone), the Tm is given as 53.1 and the ΔTm, DNA amounted to 0 °C.

Take “dG;IT;dG;dA;IT;dA;IT;dG;dC [DNA_9mer_PO_3LNA-T]”: the Tm in the data set with RNA Complement was 50 °C.

With “lCs.dTs.dTs.dTs.abTs.abTs.dGs.lCs.dTs.lCs.lGs.dTs. lCs.dTs.lTs.lA [Oligo 11919]”, in the data set on mature human miR-208a (PS backbone oligonucleotides), the “affinity for the miR-208a RNA (Tm data), in words” value is listed as “less affinity for the miR-208a RNA than the M-11920 compound”. Moreover, the Tm in the data set on mature human miR-208a (PS backbone, 10101-like) stood at 80.04. The ΔTm/mod in the data set on mature human miR-208a (setting [1]) is -6.66 ° C./modification. Besides, the “ΔTm, parent” value in the data set on mature human miR-208a (PS backbone) is on record as -6.66. Besides, the “miR208a inhibition activity (dual-luciferase reporter), in words” value with miR-208a was “slightly less activity compared to the other two inhibitors”.

For “dG;aIT;dG;dA;aIT;dA;aIT;dG;dC [DNA_9mer_PO_3aminoLNA-T]”, the Tm in the data set with RNA Complement is 47 °C. Besides, the ΔTm/mod in the data set on RNA Complement (versus 3LNA-T parent, literature) was -1 ° C./modification.

As for “ICs;dTs;dTs;dTs;ITs;ITs;dGs;ICs;dTs;ICs;IGs;dTs;ICs;dTs;ITs;IA [Oligo 10101, reference compound]”, the Tm with mature human miR-208a (PS backbone, 10101-like) amounted to 86.7.

The values are drawn from patent US10011833B2, “Bridged bicyclic nucleosides” (MIRAGEN THERAPEUTICS, INC., priority 2013, dated 2018).
